Several values for one entry are separate records, joined by “and”; a condition that tells them apart may be missing. Equal entries are not always repeated. Toxic doses and inconclusive results are not listed. No stated cut-off is given here; in the data, active means T/C of 150% or more; inactive means T/C below 125%.
Tested on: L1210 leukemia ip in BDF1 mice, survival T/C
Assay: NCI In Vivo Anticancer Drug Screen. Data for tumor model L1210 Leukemia (intraperitoneal) in B6D2F1 (BDF1) mice
Conditions: endpoint: mean survival time, higher = longer survival
How it was run: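 Survival endpoint. Drug-treated group vs vehicle group, expressed as T divided by C. Tumor passaged by transplantation.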

[1] = dose: 100.0 mg/kg/injection, schedule: Q01DX009 (ip), vehicle: Klucel (hydroxypropylcellulose) (HPC)
[2] = dose: 200.0 mg/kg/injection, schedule: Q01DX009 (ip), vehicle: Klucel (hydroxypropylcellulose) (HPC)
[3] = dose: 400.0 mg/kg/injection, schedule: Q01DX009 (ip), vehicle: Klucel (hydroxypropylcellulose) (HPC)
[4] = dose: 200.0 mg/kg/injection, schedule: Q04DX003 (ip), vehicle: Klucel (hydroxypropylcellulose) (HPC)
[5] = dose: 100.0 mg/kg/injection, schedule: Q01DX009 (ip), vehicle: saline with Tween-80
[6] = dose: 100.0 mg/kg/injection, schedule: Q04DX003 (ip), vehicle: saline with Tween-80
[7] = dose: 200.0 mg/kg/injection, schedule: Q01DX009 (ip), vehicle: saline with Tween-80
[8] = dose: 200.0 mg/kg/injection, schedule: Q04DX003 (ip), vehicle: saline with Tween-80
[9] = dose: 400.0 mg/kg/injection, schedule: Q01DX009 (ip), vehicle: saline with Tween-80
[10] = dose: 400.0 mg/kg/injection, schedule: Q04DX003 (ip), vehicle: saline with Tween-80
[11] = dose: 100.0 mg/kg/injection, schedule: Q04DX002 (ip), vehicle: gum acacia
[12] = dose: 200.0 mg/kg/injection, schedule: Q04DX002 (ip), vehicle: gum acacia
[13] = dose: 400.0 mg/kg/injection, schedule: Q04DX002 (ip), vehicle: gum acacia
[14] = dose: 100.0 mg/kg/injection, schedule: Q01DX001 (ip), vehicle: saline
[15] = dose: 200.0 mg/kg/injection, schedule: Q01DX001 (ip), vehicle: saline
[16] = dose: 400.0 mg/kg/injection, schedule: Q01DX001 (ip), vehicle: saline
[17] = dose: 100.0 mg/kg/injection, schedule: Q04DX003 (ip), vehicle: Klucel (hydroxypropylcellulose) (HPC)
[18] = dose: 400.0 mg/kg/injection, schedule: Q04DX003 (ip), vehicle: Klucel (hydroxypropylcellulose) (HPC)

Measured: T/C

O=[N+]([O-])c1ccc(OCCOCCBr)c(Cl)c1
inactive: dose: 100.0 mg/kg/injection, schedule: Q01DX001 (ip), vehicle: carboxymethylcellulose (CMC) 98 % of control and 101 % of control | dose: 100.0 mg/kg/injection, schedule: Q01DX009 (ip), vehicle: carboxymethylcellulose (CMC) 101 % of control and 110 % of control | dose: 100.0 mg/kg/injection, schedule: Q04DX003 (ip), vehicle: carboxymethylcellulose (CMC) 100 % of control and 103 % of control | dose: 200.0 mg/kg/injection, schedule: Q01DX001 (ip), vehicle: carboxymethylcellulose (CMC) 98 % of control and 90 % of control | dose: 200.0 mg/kg/injection, schedule: Q01DX009 (ip), vehicle: carboxymethylcellulose (CMC) 95 % of control and 97 % of control | dose: 200.0 mg/kg/injection, schedule: Q04DX003 (ip), vehicle: carboxymethylcellulose (CMC) 100 % of control and 106 % of control | dose: 400.0 mg/kg/injection, schedule: Q01DX001 (ip), vehicle: carboxymethylcellulose (CMC) 97 % of control and 101 % of control | dose: 400.0 mg/kg/injection, schedule: Q01DX009 (ip), vehicle: carboxymethylcellulose (CMC) 95 % of control and 101 % of control | dose: 400.0 mg/kg/injection, schedule: Q04DX003 (ip), vehicle: carboxymethylcellulose (CMC) 94 % of control

Cc1cc(C)c(C#N)c(=O)[nH]1
inactive: [1] 97 % of control | dose: 100.0 mg/kg/injection, schedule: Q04DX002 (ip), vehicle: Klucel (hydroxypropylcellulose) (HPC) 100 % of control | [2] 97 % of control | dose: 200.0 mg/kg/injection, schedule: Q04DX002 (ip), vehicle: Klucel (hydroxypropylcellulose) (HPC) 92 % of control | [3] 88 % of control | dose: 400.0 mg/kg/injection, schedule: Q04DX002 (ip), vehicle: Klucel (hydroxypropylcellulose) (HPC) 95 % of control

O=C(CCCCC(=O)OCCBr)OCCBr
inactive: dose: 20.0 mg/kg/injection, schedule: Q04DX003 (ip), vehicle: Klucel (hydroxypropylcellulose) (HPC) 100 % of control | dose: 40.0 mg/kg/injection, schedule: Q04DX003 (ip), vehicle: Klucel (hydroxypropylcellulose) (HPC) 105 % of control | dose: 80.0 mg/kg/injection, schedule: Q04DX003 (ip), vehicle: Klucel (hydroxypropylcellulose) (HPC) 114 % of control | [4] 102 % of control

O=c1cc(-c2ccccc2)ss1
inactive: [1] 100 % of control | [5] 101 % of control | [6] 102 % of control | [2] 102 % of control | [7] 97 % of control | [8] 102 % of control | [3] 105 % of control | [9] 96 % of control | [10] 103 % of control

N/C(N=P(c1ccccc1)(c1ccccc1)c1ccccc1)=N\[N+](=O)[O-]
inactive: [11] 101 % of control | [12] 107 % of control | [13] 101 % of control

COc1ccc(C)cc1NC(=O)OCCOc1ccc(C(C)(C)C)cc1
inactive: dose: 50.0 mg/kg/injection, schedule: Q01DX009 (ip), vehicle: saline with Tween-80 90 % of control | [5] 90 % of control | [7] 90 % of control

c1ccc(C2CC3c4ccccc4C2c2cccc[n+]23)nc1 (stereo unspecified)
inactive: dose: 100.0 mg/kg/injection, schedule: Q01DX001 (ip), vehicle: Klucel (hydroxypropylcellulose) (HPC) 101 % of control | dose: 200.0 mg/kg/injection, schedule: Q01DX001 (ip), vehicle: Klucel (hydroxypropylcellulose) (HPC) 107 % of control

Cc1ccc(N2CCN(c3ccc(C)cc3)CC2)cc1
inactive: [11] 109 % of control | [12] 95 % of control | [13] 103 % of control

CC12CCC3C(CCC4CC(O)CCC43C)C1CCCC2=O (stereo unspecified)
inactive: dose: 75.0 mg/kg/injection, schedule: Q04DX003 (sc), vehicle: steriod suspending solution 102 % of control | dose: 150.0 mg/kg/injection, schedule: Q04DX003 (sc), vehicle: steriod suspending solution 93 % of control | dose: 300.0 mg/kg/injection, schedule: Q04DX003 (sc), vehicle: steriod suspending solution 91 % of control

CCN1/C(=C/c2ccc3ccccc3[n+]2CC)C=Cc2ccccc21
inactive: dose: 2.0 mg/kg/injection, schedule: Q01DX001 (ip), vehicle: other 103 % of control | dose: 8.0 mg/kg/injection, schedule: Q01DX001 (ip), vehicle: other 110 % of control | dose: 9.5 mg/kg/injection, schedule: Q01DX001 (ip), vehicle: other 101 % of control

CC(=O)/C=C\c1ccc(Cl)cc1
inactive: [14] 106 % of control | [15] 98 % of control | [16] 106 % of control

CCC(C(C)=O)C(C)=O.CCC(C(C)=O)C(C)=O.[Cu]
inactive: dose: 6.0 mg/kg/injection, schedule: Q01DX001 (ip), vehicle: saline 95 % of control | dose: 12.0 mg/kg/injection, schedule: Q01DX001 (ip), vehicle: saline 101 % of control | dose: 25.0 mg/kg/injection, schedule: Q01DX001 (ip), vehicle: saline 112 % of control

CCOC(=O)CCC(NC(=O)c1cc([N+](=O)[O-])cc([N+](=O)[O-])c1)C(=O)OCC (stereo unspecified)
inactive: dose: 100.0 mg/kg/injection, schedule: Q04DX003 (ip), vehicle: saline 100 % of control | dose: 200.0 mg/kg/injection, schedule: Q04DX003 (ip), vehicle: saline 97 % of control | dose: 400.0 mg/kg/injection, schedule: Q04DX003 (ip), vehicle: saline 97 % of control

Cc1ccc(C(c2ccc(C)cc2)C(Cl)Cl)cc1
inactive: [5] 96 % of control | [7] 109 % of control | [9] 107 % of control

CCOC1OC(C(O)CO)C(O)C1O (stereo unspecified)
inactive: [6] 98 % of control | [8] 98 % of control | [10] 96 % of control

CCCC(C)OP(=O)(OCC)OC(C)CC (stereo unspecified)
inactive: [1] 100 % of control | [2] 89 % of control

COc1cc(CCl)cc(OC)c1OC
inactive: [1] 95 % of control | [17] 93 % of control | [2] 90 % of control | [4] 95 % of control | [3] 88 % of control | [18] 97 % of control

C1=C\CCCC/C=C/CC/1
inactive: dose: 50.0 mg/kg/injection, schedule: Q01DX001 (ip), vehicle: saline 103 % of control | [14] 92 % of control | [15] 101 % of control | [16] 90 % of control

CCOC(=O)C1=NN(c2ccccc2)C(=O)C1
inactive: [1] 105 % of control | [17] 98 % of control | [6] 94 % of control | [2] 103 % of control | [4] 96 % of control | [8] 100 % of control | [3] 92 % of control | [18] 102 % of control | [10] 93 % of control

C=CCOC(OCC=C)C(OCC=C)OCC=C
inactive: [7] 97 % of control | [9] 104 % of control

O=C(COc1ccccc1)NCc1cccc(Cl)c1
inactive: dose: 100.0 mg/kg/injection, schedule: Q01DX009 (ip), vehicle: gum acacia 99 % of control | dose: 200.0 mg/kg/injection, schedule: Q01DX009 (ip), vehicle: gum acacia 92 % of control | dose: 400.0 mg/kg/injection, schedule: Q01DX009 (ip), vehicle: gum acacia 92 % of control
